Where “and” joins values, the source holds several entries; their conditions need not be identical. Equal entries are not always repeated. Where two headings read alike, the source gives them in different places.
Biological target: T1, human alpha 7-wt nAChR (Homo sapiens, UniProt P36544)
T1 construct: expressed in transfected cells
Experiment: Ca2+ flux imaging (FDSS) (protocol B)
Format: cell-based
Conditions: for EC50: read-out: pEC50 (converted); for Emax: read-out: % Efficacy
Description: Example D.1 : Ca^2+ flux imaging (FDSS) (protocol B)
• a) Assay buffer Hanks buffered saline solution (HBSS, Invitrogen, Belgium), supplemented with 10 mM HEPES (Invitrogen, Belgium), CaCl2 to a final concentration of 5 mM, 0.1 % Bovine serum albumin (Sigma-Aldrich NV, Belgium). • b) Calcium-sensitive dye - Fluo-4AM Fluo-4AM (Molecular Probes, USA) was dissolved in DMSO containing 10% Pluronic acid (Molecular Probes, USA) to give a stock solution which was diluted in assay buffer supplemented with 5 mM probenicid (Sigma, Aldrich NV, Belgium) to give a final concentration of 2 µM • c) 384-well plates Black-sided, transparent bottomed 384 well plates coated with poly-D-lysine, PDL pre-coated (Coming, Incorporated, USA) • d) Calcium flux measurement A Functional drug screening system (FDSS, Hamamatsu) was used to measure intracellular free-calcium flux signals.
Monolayers of human alpha 7-wt nAChR-expressing cells were grown in black-sided, transparent bottomed 384 well plates coated with PDL for 24 hours prior to loading with a fluorescent calcium indicator, fluo-4AM for up to 120 minutes.
PAM activity was detected in real time by applying the compounds to be tested to the loaded cells along with an alpha 7 nicotinic receptor agonist during constant monitoring of cellular fluorescence in a FDSS. Compounds giving peak fluorescent responses greater than the response due to agonist alone, were consideted to be alpha 7 nAChR PAMs. The alpha 7 nicotinic receptor agonist was choline, applied at a sub-maximal concentration of 100 µM. In a further setting of the present invention the compounds were applied prior to the alpha 7 nicotinic receptor agonist, in a particular 10 minutes prior to the agonist.
A control response to choline was calculated on each plate from the difference in peak in fluorescence in wells receiving either choline or assay buffer alone. Compounds of the present invention were tested at a concentration range from 0.01 µM to 30 µM. Compounds were considered to have an interesting activity when they potentiated the choline signal at least with 200 % when tested at a concentration of 30 µM (the efficacy of 100 µM choline was defined as 100% in the absence of a PAM). An EC50 (or pEC50) was determined as a concentration relating to half the maximal effect, when a clear sigmoidal curve with top plateau was obtained.

T1 sequence (P36544 23-502): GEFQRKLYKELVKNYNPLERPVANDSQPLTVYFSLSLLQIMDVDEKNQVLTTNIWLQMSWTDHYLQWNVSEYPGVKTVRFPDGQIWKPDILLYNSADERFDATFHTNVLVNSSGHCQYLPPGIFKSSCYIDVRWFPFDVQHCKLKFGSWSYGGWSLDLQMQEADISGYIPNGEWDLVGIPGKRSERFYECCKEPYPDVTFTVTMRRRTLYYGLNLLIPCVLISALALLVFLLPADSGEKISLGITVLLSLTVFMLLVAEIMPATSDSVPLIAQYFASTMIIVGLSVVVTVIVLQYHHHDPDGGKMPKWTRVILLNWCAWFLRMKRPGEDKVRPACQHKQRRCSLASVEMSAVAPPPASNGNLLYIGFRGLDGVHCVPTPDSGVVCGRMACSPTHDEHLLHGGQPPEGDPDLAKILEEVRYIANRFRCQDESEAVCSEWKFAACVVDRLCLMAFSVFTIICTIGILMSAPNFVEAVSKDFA

| EC50 (Ca2+ assay as described in D.1) [nM] | SMILES | Emax [%] | further results |
| --- | --- | --- | --- |
| 309 | Cc1cc(-c2ccc(N3CCO[C@H](C(F)(F)F)C3)c(F)c2CNC(=O)CC2CC2)cc(C)n1 [Compound 64] |  |  |
|  | Cc1nocc1C(=O)NCc1cc(N2CCOCC2)ccc1-c1ccncc1 [Compound 138] |  | Emax (Ca2+ assay as described in D.1): 386% |
| 41.7 | Cc1cc(-c2ccc(N3C[C@@H](C)O[C@@H](C)C3)c(F)c2CNC(=O)c2ccc(F)cc2C)cc(C)n1 [Compound 40] |  |  |
| 1070 | Cc1cc(-c2ccc(C3C[C@@H](C)O[C@@H](C)C3)c(F)c2CNC(=O)c2conc2C)cc(C)n1 (relative stereo) [Compound 63] |  |  |
| 1100 | CC(C)C(=O)NCc1cc(N2C[C@@H](C)O[C@@H](C)C2)ccc1-c1ccncc1 [Compound 15] |  |  |
| 24 | Cc1cc(-c2ccc(N3C[C@@H](C)O[C@@H](C)C3)c(F)c2CNC(=O)CC(C)(C)C)cc(C)n1 [Compound 48] |  |  |
| 5.37 | Cc1cc(-c2c(F)cc(N3C[C@@H](C)O[C@@H](C)C3)cc2CNC(=O)CCC(F)(F)F)cc(C)n1 [Compound 81] |  |  |
| 575 | Cc1cc(-c2ccc(N3CCO[C@H](C(F)(F)F)C3)c(F)c2CNC(=O)C(C)C)cc(C)n1 [Compound 65] |  |  |
|  | Cc1cc(-c2c(F)cc(N3CCCC(C(F)(F)F)C3)cc2CNC(=O)C(C)C)cc(C)n1 (stereo not shown) [Compound 96] |  | Emax (Ca2+ assay as described in D.1): 148% |
|  | Cc1cc(-c2c(F)cc(N3C[C@@H](C)O[C@@H](C)C3)cc2CNC(=O)CC(F)(F)F)cc(C)n1 [Compound 77] |  | Emax (Ca2+ assay as described in D.1): 136% |
| 148 | Cc1cc(-c2ccc(N3C[C@@H](C)O[C@@H](C)C3)c(F)c2CNC(=O)c2cnc(Cl)cc2Cl)cc(C)n1 [Compound 51] |  |  |
| 234 | Cc1cc(-c2ccc(N3CCO[C@@H](C(F)(F)F)C3)c(F)c2CNC(=O)c2cc(C)on2)cc(C)n1 [Compound 57] |  |  |
| 479 | Cc1cc(-c2ccc(N3C[C@@H](C)O[C@@H](C)C3)c(F)c2CNC(=O)C(C)C2CC2)cc(C)n1 (mixture of isomers) [Compound 50] |  |  |
| 871 | Cc1cc(-c2ccc(C3C[C@@H](C)O[C@@H](C)C3)c(F)c2CNC(=O)C(C)C)cc(C)n1 (relative stereo) [Compound 61] |  |  |
| 479 | Cc1cc(-c2ccc(N3C[C@@H](C)O[C@@H](C)C3)c(F)c2CNC(=O)c2cccc(Cl)c2F)cc(C)n1 [Compound 52] |  |  |
|  | Cc1cc(-c2ccc(N3CCOCC3)cc2CNC(=O)CC(F)(F)F)cc(C)n1 [Compound 28] |  | Emax (Ca2+ assay as described in D.1): 111% |
| 83.2 | Cc1cc(-c2ccc(N3CCO[C@@H](C(F)(F)F)C3)c(F)c2CNC(=O)CC2CC2)cc(C)n1 [Compound 59] |  |  |
|  | Cc1cc(-c2ccc(N3CC4CCC(C3)O4)cc2CNC(=O)CC2CC2)cc(C)n1 [Compound 130] |  | Emax (Ca2+ assay as described in D.1): 95.5% |

| EC50 (Ca2+ assay as described in D.1) [nM] | SMILES | Emax [%] | further results |
| --- | --- | --- | --- |
| 832 | Cc1cc(-c2ccc(N3C[C@@H](C)O[C@@H](C)C3)c(F)c2CNC(=O)c2conc2C)cc(C)n1 [Compound 39] |  |  |
|  | Cc1cc(-c2ccc(N3CCCC(C(F)(F)F)C3)cc2CNC(=O)C(C)C)cc(C)n1 (stereo not shown) [Compound 36] |  | Emax (Ca2+ assay as described in D.1): 131% |
| 269 | Cc1cc(-c2ccc(N3CCO[C@@H](C(F)(F)F)C3)c(F)c2CNC(=O)c2conc2C)cc(C)n1 [Compound 58] |  |  |
|  | Cc1cc(-c2ccc(N3CCOCC3)cc2CNC(=O)C(C)C)ccn1 [Compound 140] |  | % Efficacy (Ca2+ assay as described in D.1): 495.5% and 591.6% |
| 240 | Cc1cc(-c2ccc(N3C[C@@H](C)O[C@@H](C)C3)cc2CNC(=O)C(C)C)ccn1 [Compound 9] |  |  |
| 708 | Cc1cc(-c2ccc(C3C[C@@H](C)O[C@@H](C)C3)c(F)c2CNC(=O)c2cc(C)on2)cc(C)n1 (relative stereo) [Compound 62] |  |  |
| 209 | Cc1cc(-c2c(F)cc(N3C[C@@H](C)O[C@@H](C)C3)cc2CNC(=O)c2cc(C)on2)cc(C)n1 [Compound 75] |  |  |
|  | Cc1cc(-c2ccc(N3CCOCC3)cc2CNC(=O)C2CC2)cc(C)n1 [Compound 30] |  | Emax (Ca2+ assay as described in D.1): 260% |
| 9.33 | Cc1cc(-c2ccc(N3C[C@@H](C)O[C@@H](C)C3)cc2CNC(=O)c2ccc(F)cc2C)cc(C)n1 [Compound 5] |  |  |
| 1170 | Cc1cc(-c2ccc(N3C[C@@H](C)O[C@@H](C)C3)c(F)c2CNC(=O)C2CC2)cc(C)n1 [Compound 42] |  |  |
|  | Cc1cc(-c2ccc(N3C[C@@H](C)O[C@@H](C)C3)cc2CNC(=O)CC(F)(F)F)cc(C)n1 [Compound 7] |  | Emax (Ca2+ assay as described in D.1): 287% |
| 115 | Cc1cc(-c2ccc(N3CCO[C@H](C(F)(F)F)C3)c(F)c2CNC(=O)CC2CCC2)cc(C)n1 [Compound 70] |  |  |
| 6.17 | Cc1cc(-c2c(F)cc(N3C[C@@H](C)O[C@@H](C)C3)cc2CNC(=O)CC2CCC2)cc(C)n1 [Compound 80] |  |  |
| 776 | Cc1cc(-c2ccc(N3CCO[C@H](C(F)(F)F)C3)c(F)c2CNC(=O)C2CC2)cc(C)n1 [Compound 69] |  |  |
| 14.1 | Cc1cc(-c2ccc(N3C[C@@H](C)O[C@@H](C)C3)c(CNC(=O)c3ccc(F)cc3C)c2)cc(C)n1 [Compound 135] |  |  |
| 14.8 | Cc1cc(-c2ccc(N3CCO[C@@H](C(F)(F)F)C3)c(F)c2CNC(=O)CC(C)C)cc(C)n1 [Compound 72] |  |  |
| 138 | Cc1cc(-c2ccc(N3C[C@@H](C)O[C@@H](C)C3)c(F)c2CNC(=O)CC2CCC2)cc(C)n1 [Compound 45] |  |  |

| SMILES | EC50 (Ca2+ assay as described in D.1) [nM] | Emax [%] | further results |
| --- | --- | --- | --- |
| Cc1cc(-c2ccc(N3CCOCC3)cc2CNC(=O)CC2CC2)cc(C)n1 [Compound 24] | 1780 | 466 |  |
| Cc1cc(-c2ccc(N3CCO[C@@H](C(F)(F)F)C3)c(F)c2CNC(=O)C2CC2)cc(C)n1 [Compound 73] | 741 | 878 |  |
| Cc1cc(-c2c(F)cc(N3CCCC(C(F)(F)F)C3)cc2CNC(=O)CC2CC2)cc(C)n1 (stereo not shown) [Compound 95] | 27.5 | 427 |  |
| Cc1cc(-c2ccc(N3CCCC(C(F)(F)F)C3)cc2CNC(=O)c2ccc(F)cc2C)cc(C)n1 (stereo not shown) [Compound 33] | 245 | 278 |  |
| Cc1cc(-c2ccc(N3CC4CCC(C3)O4)cc2CNC(=O)C(C)C)cc(C)n1 [Compound 129] | 724 | 296 |  |
| Cc1cc(-c2ccc(N3CCOCC3)cc2CNC(=O)c2conc2C)ccn1 [Compound 143] | 8710 | 130 |  |
| Cc1cc(-c2ccc(N3CCOCC3)cc2CNC(=O)c2ccc(F)cc2C)cc(C)n1 [Compound 27] | 57.5 | 419 |  |
| Cc1cc(-c2ccc(N3C[C@H](C(F)(F)F)C[C@H](C(F)(F)F)C3)cc2CNC(=O)CC2CC2)cc(C)n1 [Compound 22] | 16.2 | 458 |  |
| Cc1cc(-c2c(F)cc(N3CCCC(C(F)(F)F)C3)cc2CNC(=O)C2CC2)cc(C)n1 (stereo not shown) [Compound 97] | 19.5 | 330 |  |
| Cc1cc(-c2c(F)cc(N3C[C@@H](C)O[C@@H](C)C3)cc2CNC(=O)C(C)C)cc(C)n1 [Compound 78] | 21.9 | 707 |  |
| Cc1cc(-c2ccc(N3CCO[C@H](C(F)(F)F)C3)c(F)c2CNC(=O)c2conc2C)cc(C)n1 [Compound 66] | 398 | 649 |  |
| Cc1cc(-c2ccc(N3CCOCC3)cc2CNC(=O)c2cc(C)on2)cc(C)n1 [Compound 25] | 6170 | 654 |  |
| Cc1cc(-c2ccc(N3C[C@H](C(F)(F)F)C[C@H](C(F)(F)F)C3)cc2CNC(=O)c2ccc(F)cc2C)cc(C)n1 [Compound 20] | 11 | 466 |  |
| Cc1cc(-c2ccc(N3C[C@H](C(F)(F)F)C[C@H](C(F)(F)F)C3)cc2CNC(=O)c2cc(C)on2)cc(C)n1 [Compound 21] | 126 | 541 |  |
| Cc1cc(-c2ccc(N3C[C@@H](C)O[C@@H](C)C3)cc2CNC(=O)C(C)C2CC2)cc(C)n1 (relative stereo) [Compound 8] | 24 | 353 |  |
| Cc1cc(-c2c(F)cc(N3C[C@@H](C)O[C@@H](C)C3)cc2CNC(=O)C2CC2)cc(C)n1 [Compound 79] | 17.4 | 381 |  |
| Cc1cc(-c2ccc(N3CCCC(C(F)(F)F)C3)cc2CNC(=O)CC2CC2)cc(C)n1 (stereo not shown) [Compound 35] | 26.3 | 389 |  |
| Cc1cc(-c2c(F)cc(N3C[C@@H](C)O[C@@H](C)C3)cc2CNC(=O)CC(C)(C)C)cc(C)n1 [Compound 84] | 9.33 | 686 |  |
| Cc1cc(-c2ccc(N3C[C@@H](C)O[C@@H](C)C3)cc2CNC(=O)c2conc2C)ccn1 [Compound 12] | 166 | 562 |  |
| Cc1cc(-c2c(F)cc(N3C[C@@H](C)O[C@@H](C)C3)cc2CNC(=O)c2conc2C)cc(C)n1 [Compound 76] | ~38 | 572 |  |
| Cc1cc(-c2ccc(N3CCCC(C(F)(F)F)C3)cc2CNC(=O)c2cc(C)on2)cc(C)n1 (stereo not shown) [Compound 34] | 537 | 405 |  |
| Cc1cc(-c2ccc(C3C[C@@H](C)O[C@@H](C)C3)c(F)c2CNC(=O)CC(C)C)cc(C)n1 (relative stereo) [Compound 55] | 229 | 890 |  |
